From PMC12424613, “Analysis of the resistance level and target site resistance mechanisms of Echinochloa crus-galli to penoxsulam from Hubei Province, China” (PeerJ, 2025)

Target: T1, acetolactate synthase (ALS)
T1 construct: native ALS from leaf extract of susceptible population 18-NJ (ammonium sulfate precipitated, desalted; ALS1/ALS2/ALS3 copies not separated)
Assay: in vitro ALS activity assay (acetoin formation, […] nm) in desalted leaf enzyme extract
Type: biochemical, Echinochloa crus-galli

COc1cnc(OC)n2nc(NS(=O)(=O)c3c(OCC(F)F)cccc3C(F)(F)F)nc12 [penoxsulam]
IC50: 1230 nM
